From patent US10227357B2, “Compounds and methods for kinase modulation, and indications therefor” (Plexxikon Inc., priority 2012, dated 2019)

Experiments:
[1] = biological target: T1, c-kit kinase (Homo sapiens, UniProt P10721); assay: c-Kit biochemical assay, AlphaScreen, 10 μM ATP; conditions: c-kit biochemical inhibitory activity; read-out: Biochemical activity (IC50 μM) Kit
T1 construct: The c-kit (or kinase domain thereof) is an active kinase in AlphaScreen; poly-Histidine tag (in-house protein only) (cleaved yes); host or cells: E. coli BL21(DE3)RIL, co-expressed with PTP1B
T1 sequence (P10721 26-976): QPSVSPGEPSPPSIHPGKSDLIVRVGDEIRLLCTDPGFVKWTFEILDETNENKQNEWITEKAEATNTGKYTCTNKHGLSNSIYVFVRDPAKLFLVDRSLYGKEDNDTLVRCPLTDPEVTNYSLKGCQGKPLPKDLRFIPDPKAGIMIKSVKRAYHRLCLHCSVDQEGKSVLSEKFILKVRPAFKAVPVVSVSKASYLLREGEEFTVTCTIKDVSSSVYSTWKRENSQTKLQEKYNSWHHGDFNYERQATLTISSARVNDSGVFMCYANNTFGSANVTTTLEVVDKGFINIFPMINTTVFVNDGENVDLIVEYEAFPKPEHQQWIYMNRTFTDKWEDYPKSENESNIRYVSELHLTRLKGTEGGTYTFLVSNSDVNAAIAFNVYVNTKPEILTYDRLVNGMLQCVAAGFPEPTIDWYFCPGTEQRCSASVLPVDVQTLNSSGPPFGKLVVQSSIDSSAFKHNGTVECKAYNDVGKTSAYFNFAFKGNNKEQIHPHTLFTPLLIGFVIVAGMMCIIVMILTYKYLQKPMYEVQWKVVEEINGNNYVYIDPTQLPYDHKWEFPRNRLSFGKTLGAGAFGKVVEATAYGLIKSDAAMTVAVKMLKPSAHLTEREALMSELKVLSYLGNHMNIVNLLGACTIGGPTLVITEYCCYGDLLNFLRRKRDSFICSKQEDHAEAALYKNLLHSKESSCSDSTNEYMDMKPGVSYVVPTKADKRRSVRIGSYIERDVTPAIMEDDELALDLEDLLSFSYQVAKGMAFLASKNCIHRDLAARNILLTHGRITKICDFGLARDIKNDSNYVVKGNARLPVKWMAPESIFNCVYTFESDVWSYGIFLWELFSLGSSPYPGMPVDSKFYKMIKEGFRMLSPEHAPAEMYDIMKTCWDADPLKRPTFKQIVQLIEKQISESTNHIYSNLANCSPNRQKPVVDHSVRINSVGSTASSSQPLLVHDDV
In short: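 His-tagged c-Kit expressed in E. coli with co-expressed PTP1B (dephosphorylated), tag removed; 0.1 ng per reaction with biotinylated-peptide substrate in 50 mM HEPES pH 7.2, 5 mM MgCl2, 5 mM MnCl2, 5% DMSO, 10 μM ATP, 1 h at room temperature. Phosphorylation detected by AlphaScreen (streptavidin donor, PY20 acceptor beads); IC50 from 8-point 1:3 dilution series.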

[2] = biological target: T2, c-kit mutant D816V (Homo sapiens, UniProt P10721, D816V/DEL694-753); assay: c-Kit mutant D816V biochemical assay, AlphaScreen; conditions: c-kit D816V biochemical inhibitory activity; read-out: Biochemical activity (IC50 μM) Kit D816V
T2 construct: residues 551-934, kinase insertion domain residues 694-753 deleted; 6x-histidine (N); made in house; host or cells: E. coli Arctic Express (DE3) RIL (Stratagene)
T2 sequence (P10721 with tags, fused parts or gaps DEL694-753/D816V): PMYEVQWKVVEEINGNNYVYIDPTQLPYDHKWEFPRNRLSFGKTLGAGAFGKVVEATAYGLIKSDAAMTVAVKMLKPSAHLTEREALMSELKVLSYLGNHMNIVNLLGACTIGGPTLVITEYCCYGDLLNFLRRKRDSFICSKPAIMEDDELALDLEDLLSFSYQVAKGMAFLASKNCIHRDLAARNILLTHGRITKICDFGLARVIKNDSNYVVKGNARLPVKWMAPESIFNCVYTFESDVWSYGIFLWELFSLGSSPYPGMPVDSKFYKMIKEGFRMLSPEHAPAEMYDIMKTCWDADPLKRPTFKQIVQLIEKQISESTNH
In short: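 Eight-point, threefold compound series incubated 30 min at room temperature with E. coli-produced D816V kinase, 10 μM ATP, Mg2+/Mn2+ HEPES buffer pH 7.2 and 5% DMSO. After EDTA stop, streptavidin and anti-phosphotyrosine (PY20) AlphaScreen beads gave the read-out, and IC50 was fitted from the concentration–signal curve.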

Compound	IC50 [1]	IC50 [2]
COc1ccc([C@H](C)NC(=O)N2CCN(c3ncnc4[nH]c(-c5ccc(F)cc5)cc34)C[C@H]2C)cc1 [P-0018, (2R)-4-[6-(4-fluorophenyl)-7H-pyrrolo[2,3-d]pyrimidin-4-yl]-N-[(1S)-1-(4-methoxyphenyl)ethyl]-2-methyl-piperazine-1-carboxamide]	1 to 10 µM	0.0001 to 1 µM
NS(=O)(=O)c1cccc(-c2cc3c(N4CCN(C(=O)Nc5ccc(OC(F)(F)F)cc5)CC4)ncnc3[nH]2)c1 [P-0083, 4-[6-(3-sulfamoylphenyl)-7H-pyrrolo[2,3-d]pyrimidin-4-yl]-N-[4-(trifluoromethoxy)phenyl]piperazine-1-carboxamide]	0.0001 to 1 µM	0.0001 to 1 µM
COc1cc2ncnc(-c3ccc(NS(=O)(=O)c4ccc(Cl)cc4)cc3F)c2cc1OCCCN1CCOCC1 [P-0250, 4-chloro-N-[3-fluoro-4-[7-methoxy-6-(3-morpholinopropoxy)quinazolin-4-yl]phenyl]benzenesulfonamide]	0.0001 to 1 µM	0.0001 to 1 µM
O=C(Nc1ccc(OC(F)(F)F)cc1)N1CCN(c2ncnc3[nH]c(C#CC4CC4)cc23)CC1 [P-0053, 4-[6-(2-cyclopropylethynyl)-7H-pyrrolo[2,3-d]pyrimidin-4-yl]-N-[4-(trifluoromethoxy)phenyl]piperazine-1-carboxamide]	1 to 10 µM	10 to 200 µM
Cc1cc2c(-c3ccc(NS(=O)(=O)c4sc(C)nc4C)cc3)ncnc2[nH]1 [P-0300, 2,4-dimethyl-N-[4-(6-methyl-7H-pyrrolo[2,3-d]pyrimidin-4-yl)phenyl]thiazole-5-sulfonamide]	10 to 200 µM	1 to 10 µM
Cc1c(-c2cc3ncnc(N4CCN(C(=O)NCc5ccc(F)cc5)CC4)c3s2)cnn1C [P-0620, 4-[6-(1,5-dimethylpyrazol-4-yl)thieno[3,2-d]pyrimidin-4-yl]-N-[(4-fluorophenyl)methyl]piperazine-1-carboxamide]	1 to 10 µM	0.0001 to 1 µM
COc1cc2ncnc(-c3ccc(NS(=O)(=O)C4CC4)cc3F)c2cc1OC [P-0270, N-[4-(6,7-dimethoxyquinazolin-4-yl)-3-fluoro-phenyl]cyclopropanesulfonamide]	10 to 200 µM	0.0001 to 1 µM
O=C(Nc1ccc(OC(F)(F)F)cc1)N1CCN(c2ncnc3[nH]c(-c4ccc(F)cc4)cc23)CC1 [P-0133, 4-[6-(4-fluorophenyl)-7H-pyrrolo[2,3-d]pyrimidin-4-yl]-N-[4-(trifluoromethoxy)phenyl]piperazine-1-carboxamide]	0.0001 to 1 µM	1 to 10 µM
O=C(NCc1ccccc1Cl)N1CCN(c2ncnc3[nH]c(-c4ccc(F)cc4)cc23)CC1 [P-0154, N-[(2-chlorophenyl)methyl]-4-[6-(4-fluorophenyl)-7H-pyrrolo[2,3-d]pyrimidin-4-yl]piperazine-1-carboxamide]	10 to 200 µM	1 to 10 µM
Cc1nn(C)cc1-c1cc2c(N3CCN(C(=O)N[C@@H](C)c4ccc(Cl)cc4)C(C)(C)C3)ncnc2[nH]1 [P-0723, N-[(1S)-1-(4-chlorophenyl)ethyl]-4-[6-(1,3-dimethylpyrazol-4-yl)-7H-pyrrolo[2,3-d]pyrimidin-4-yl]-2,2-dimethyl-piperazine-1-carboxamide]	0.0001 to 1 µM	0.0001 to 1 µM
O=C(Nc1ccc(OC(F)(F)F)cc1)N1CCN(c2ncnc3[nH]c(-c4cccnc4)cc23)CC1 [P-0224, 4-[6-(3-pyridyl)-7H-pyrrolo[2,3-d]pyrimidin-4-yl]-N-[4-(trifluoromethoxy)phenyl]piperazine-1-carboxamide]	0.0001 to 1 µM	0.0001 to 1 µM
CCc1ccc(S(=O)(=O)NC2CCN(c3ncnc4[nH]c(-c5cnn(C)c5)cc34)CC2)cc1 [P-0676, 4-ethyl-N-[1-[6-(1-methylpyrazol-4-yl)-7H-pyrrolo[2,3-d]pyrimidin-4-yl]-4-piperidyl]benzenesulfonamide]	0.0001 to 1 µM	0.0001 to 1 µM
COc1ccc(-c2cc3c(N4CCN(C(=O)Nc5ccc(OC(F)(F)F)cc5)CC4)ncnc3[nH]2)cn1 [P-0118, 4-[6-(6-methoxy-3-pyridyl)-7H-pyrrolo[2,3-d]pyrimidin-4-yl]-N-[4-(trifluoromethoxy)phenyl]piperazine-1-carboxamide]	0.0001 to 1 µM	10 to 200 µM
COCCOc1cc2ncnc(-c3ccc(NS(=O)(=O)c4ccc(Cl)cc4)cc3F)c2cc1OCCOC [P-0261, N-[4-[6,7-bis(2-methoxyethoxy)quinazolin-4-yl]-3-fluoro-phenyl]-4-chloro-benzenesulfonamide]	0.0001 to 1 µM	0.0001 to 1 µM
Cc1ccc([C@H](C)NC(=O)N2CCN(c3ncnc4[nH]c(-c5ccc(F)cc5)cc34)CC2(C)C)cc1 [P-0719, 4-[6-(4-fluorophenyl)-7H-pyrrolo[2,3-d]pyrimidin-4-yl]-2,2-dimethyl-N-[(1S)-1-(p-tolyl)ethyl]piperazine-1-carboxamide]	0.0001 to 1 µM	0.0001 to 1 µM
O=C(Nc1ccc(OC(F)(F)F)cc1)N1CCN(c2ncnc3[nH]c(-c4ccncc4)cc23)CC1 [P-0102, 4-[6-(4-pyridyl)-7H-pyrrolo[2,3-d]pyrimidin-4-yl]-N-[4-(trifluoromethoxy)phenyl]piperazine-1-carboxamide]	0.0001 to 1 µM	1 to 10 µM
O=S(=O)(Nc1ccc(F)cc1)c1ccc(-c2ncnc3[nH]c(-c4ccc(F)cc4)cc23)c(F)c1 [P-0328, 3-fluoro-N-(4-fluorophenyl)-4-[6-(4-fluorophenyl)-7H-pyrrolo[2,3-d]pyrimidin-4-yl]benzenesulfonamide]	10 to 200 µM	0.0001 to 1 µM
C[C@@H]1CN(c2ncnc3[nH]c(-c4ccncc4)cc23)CCN1C(=O)NCc1cccc(Cl)c1 [P-0056, (2R)-N-[(3-chlorophenyl)methyl]-2-methyl-4-[6-(4-pyridyl)-7H-pyrrolo[2,3-d]pyrimidin-4-yl]piperazine-1-carboxamide]	1 to 10 µM	0.0001 to 1 µM
N#Cc1cccc(-c2cc3c(N4CCN(C(=O)Nc5ccc(OC(F)(F)F)cc5)CC4)ncnc3[nH]2)c1 [P-0121, 4-[6-(3-cyanophenyl)-7H-pyrrolo[2,3-d]pyrimidin-4-yl]-N-[4-(trifluoromethoxy)phenyl]piperazine-1-carboxamide]	10 to 200 µM	10 to 200 µM
Cc1cc2c(-c3ccc(NS(=O)(=O)c4ccc(OC(C)C)cc4)cc3)ncnc2[nH]1 [P-0311, 4-isopropoxy-N-[4-(6-methyl-7H-pyrrolo[2,3-d]pyrimidin-4-yl)phenyl]benzenesulfonamide]	10 to 200 µM	10 to 200 µM
COc1cccc([C@H](C)NC(=O)N2CCN(c3ncnc4[nH]c(-c5ccc(C#N)cc5)cc34)C[C@H]2C)c1 [P-0692, (2R)-4-[6-(4-cyanophenyl)-7H-pyrrolo[2,3-d]pyrimidin-4-yl]-N-[(1S)-1-(3-methoxyphenyl)ethyl]-2-methyl-piperazine-1-carboxamide]	1 to 10 µM	0.0001 to 1 µM
C[C@@H]1CN(c2ncnc3[nH]c(-c4ccncc4)cc23)CCN1C(=O)Nc1ccc(F)c(Cl)c1 [P-0062, (2R)-N-(3-chloro-4-fluoro-phenyl)-2-methyl-4-[6-(4-pyridyl)-7H-pyrrolo[2,3-d]pyrimidin-4-yl]piperazine-1-carboxamide]	1 to 10 µM	0.0001 to 1 µM
C[C@H](NC(=O)N1CCN(c2ncnc3[nH]c(-c4ccc(F)cc4)cc23)CC1)c1cccc(N(C)C)c1 [P-0016, N-[(1S)-1-[3-(dimethylamino)phenyl]ethyl]-4-[6-(4-fluorophenyl)-7H-pyrrolo[2,3-d]pyrimidin-4-yl]piperazine-1-carboxamide]	1 to 10 µM	0.0001 to 1 µM
COc1ccc(S(=O)(=O)Nc2ccc(-c3ncnc4[nH]c(C)cc34)cc2)cc1F [P-0325, 3-fluoro-4-methoxy-N-[4-(6-methyl-7H-pyrrolo[2,3-d]pyrimidin-4-yl)phenyl]benzenesulfonamide]	10 to 200 µM	1 to 10 µM
Cc1nn(C)cc1-c1cc2c(N3CCC(NS(=O)(=O)c4ccc(OC(F)(F)F)cc4)CC3)ncnc2[nH]1 [P-0668, N-[1-[6-(1,3-dimethylpyrazol-4-yl)-7H-pyrrolo[2,3-d]pyrimidin-4-yl]-4-piperidyl]-4-(trifluoromethoxy)benzenesulfonamide]	0.0001 to 1 µM	0.0001 to 1 µM
COCCOc1cc2ncnc(-c3ccc(NS(=O)(=O)C4CC4)cc3F)c2cc1OCCOC [P-0263, N-[4-[6,7-bis(2-methoxyethoxy)quinazolin-4-yl]-3-fluoro-phenyl]cyclopropanesulfonamide]	10 to 200 µM	0.0001 to 1 µM
Cc1nn(C)cc1-c1cc2ncnc(N3CCN(C(=O)N[C@@H](C)c4ccc(F)cc4)[C@H](C)C3)c2s1 [P-0599, (2R)-4-[6-(1,3-dimethylpyrazol-4-yl)thieno[3,2-d]pyrimidin-4-yl]-N-[(1S)-1-(4-fluorophenyl)ethyl]-2-methyl-piperazine-1-carboxamide]	10 to 200 µM	0.0001 to 1 µM
COc1ccc(NC(=O)N2CCN(c3ncnc4[nH]c(-c5ccncc5)cc34)C[C@H]2C)cn1 [P-0057, (2R)-N-(6-methoxy-3-pyridyl)-2-methyl-4-[6-(4-pyridyl)-7H-pyrrolo[2,3-d]pyrimidin-4-yl]piperazine-1-carboxamide]	1 to 10 µM	0.0001 to 1 µM
